# Values joined by “and” are separate entries in the source; they are usually repeats but may differ in a detail not shown here. Identical values can stand only once.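 Where inhibition never reached the appropriate level, the endpoint shown equals the highest concentration tested. Otherwise, values were interpolated linearly from a five-concentration, 48-hour dose response in 96-well plates. GI50 is the concentration that inhibits growth by half.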 Active and inactive are the calls of the source. Cut-off read from the data, not from the text of the source: active = GI50 up to about 1.1 µM and inactive = higher.
# Assays:
# Test in all cases: growth of human tumour cells (NCI), 48 h
# KM12 = test system: KM12
# CCRF-CEM = test system: CCRF-CEM
# SW-620 = test system: SW-620
# Hs-578T = test system: Hs-578T
# SF-268 = test system: SF-268
# SK-OV-3 = test system: SK-OV-3
# TK-10 = test system: TK-10
# HCC 2998 = test system: HCC 2998
# MDA-N = test system: MDA-N
# NCI-H226 = test system: NCI-H226
# NCI-H522 = test system: NCI-H522
# RXF 393 = test system: RXF 393
# HCT-116 = test system: HCT-116
# NCI-H460 = test system: NCI-H460
# UACC-62 = test system: UACC-62
# SK-MEL-28 = test system: SK-MEL-28
# HOP-92 = test system: HOP-92
# COLO 205 = test system: COLO 205
# HL-60 = test system: HL-60
# HOP-62 = test system: HOP-62
# SR = test system: SR
# MDA-MB-435 = test system: MDA-MB-435
# NCI/ADR-RES = test system: NCI/ADR-RES
# HCT-15 = test system: HCT-15
# NCI-H23 = test system: NCI-H23
# Malme-3M = test system: Malme-3M
# A549 = test system: A549
# HT-29 = test system: HT-29
# SN12C = test system: SN12C
# BT-549 = test system: BT-549
# UO-31 = test system: UO-31
# U-251 = test system: U-251
# OVCAR-4 = test system: OVCAR-4
# RPMI-8226 = test system: RPMI-8226
# IGROV-1 = test system: IGROV-1
# SNB-19 = test system: SNB-19
# 786-0 = test system: 786-0
# OVCAR-5 = test system: OVCAR-5
# SF-295 = test system: SF-295
# SK-MEL-2 = test system: SK-MEL-2
# OVCAR-3 = test system: OVCAR-3
# DU-145 = test system: DU-145
# CAKI-1 = test system: CAKI-1
# UACC-257 = test system: UACC-257
# SNB-75 = test system: SNB-75
# PC-3 = test system: PC-3
# T47D = test system: T47D
# SF-539 = test system: SF-539
# EKVX = test system: EKVX
# M14 = test system: M14
# K562 = test system: K562
# A498 = test system: A498
# SK-MEL-5 = test system: SK-MEL-5
# MDA-MB-231 = test system: MDA-MB-231
# MCF7 = test system: MCF7
# MOLT-4 = test system: MOLT-4
# ACHN = test system: ACHN
# OVCAR-8 = test system: OVCAR-8
# LOX IMVI = test system: LOX IMVI
# DMS-273 = test system: DMS-273
compound,measurement,setting,value
COc1ccc2c(c1)c1nn(CCN3CCCCC3)c3ccc4c(=O)n(CCN(C)C)c(=O)n2c4c13,GI50,KM12,< 0.01 µM (active)
same,GI50,CCRF-CEM,< 0.01 µM (active)
same,GI50,SW-620,< 0.01 µM (active)
same,GI50,Hs-578T,< 0.0325 µM (active)
same,GI50,SF-268,< 0.01 µM (active)
same,GI50,SK-OV-3,0.565 µM (active)
same,GI50,TK-10,0.029 µM (active)
same,GI50,HCC 2998,< 0.01 µM (active)
same,GI50,MDA-N,< 0.0109 µM (active)
same,GI50,NCI-H226,0.0231 µM (active)
same,GI50,NCI-H522,< 0.01 µM (active)
same,GI50,RXF 393,< 0.0164 µM (active)
same,GI50,HCT-116,< 0.01 µM (active)
same,GI50,NCI-H460,< 0.01 µM (active)
same,GI50,UACC-62,0.0304 µM (active)
same,GI50,SK-MEL-28,0.139 µM (active)
same,GI50,HOP-92,0.152 µM (active)
same,GI50,COLO 205,0.148 µM (active)
same,GI50,HL-60,0.076 µM (active)
same,GI50,HOP-62,< 0.01 µM (active)
same,GI50,SR,< 0.01 µM (active)
same,GI50,MDA-MB-435,< 0.0109 µM (active)
same,GI50,NCI/ADR-RES,< 0.153 µM (active)
same,GI50,HCT-15,< 0.01 µM
same,GI50,NCI-H23,< 0.022 µM (active)
same,GI50,Malme-3M,0.0619 µM (active)
same,GI50,A549,< 0.01 µM (active)
same,GI50,HT-29,< 0.01 µM (active)
same,GI50,SN12C,< 0.01 µM (active)
same,GI50,BT-549,0.245 µM (active)
same,GI50,UO-31,< 0.0116 µM (active)
same,GI50,U-251,< 0.01 µM (active)
same,GI50,OVCAR-4,< 0.01 µM (active)
same,GI50,RPMI-8226,< 0.01 µM (active)
same,GI50,IGROV-1,< 0.01 µM (active)
same,GI50,SNB-19,< 0.0138 µM (active)
same,GI50,786-0,< 0.01 µM (active)
same,GI50,OVCAR-5,< 10.5 nM (active)
same,GI50,SF-295,< 0.01 µM (active)
same,GI50,SK-MEL-2,0.04 µM (active)
same,GI50,OVCAR-3,0.0151 µM (active)
same,GI50,DU-145,< 0.01 µM (active)
same,GI50,CAKI-1,0.0219 µM (active)
same,GI50,UACC-257,0.244 µM (active)
same,GI50,SNB-75,< 0.01 µM (active)
same,GI50,PC-3,0.019 µM (active)
same,GI50,T47D,< 0.0175 µM (active)
same,GI50,SF-539,0.0284 µM (active)
same,GI50,EKVX,< 0.0142 µM (active)
same,GI50,M14,0.0188 µM (active)
same,GI50,K562,< 0.01 µM (active)
same,GI50,A498,< 0.022 µM (active)
same,GI50,SK-MEL-5,0.0406 µM (active)
same,GI50,MDA-MB-231,< 0.0119 µM (active)
same,GI50,MCF7,< 0.01 µM (active)
same,GI50,MOLT-4,< 0.01 µM (active)
same,GI50,ACHN,< 0.01 µM (active)
same,GI50,OVCAR-8,< 0.01 µM (active)
same,GI50,LOX IMVI,< 0.01 µM (active)
C/C=C(\C)C(=O)OC1C2C(C)C(=O)OC2C(O)C(C)C2C=CC(=O)C21C (stereo not given),GI50,KM12,11.1 µM (inactive)
same,GI50,CCRF-CEM,3.06 µM (inactive)
same,GI50,SW-620,14 µM (inactive)
same,GI50,Hs-578T,13.3 µM (inactive)
same,GI50,SF-268,18.6 µM (inactive)
same,GI50,SK-OV-3,16.6 µM (inactive)
same,GI50,TK-10,12.5 µM (inactive)
same,GI50,HCC 2998,13.3 µM (inactive)
same,GI50,MDA-N,8.81 µM (inactive)
same,GI50,NCI-H226,16.9 µM (inactive)
same,GI50,NCI-H522,2.69 µM (inactive)
same,GI50,RXF 393,8.73 µM (inactive)
same,GI50,HCT-116,9.59 µM (inactive)
same,GI50,NCI-H460,4.49 µM (inactive)
same,GI50,UACC-62,10.5 µM (inactive)
same,GI50,SK-MEL-28,14.1 µM (inactive)
same,GI50,HOP-92,13.4 µM (inactive)
same,GI50,COLO 205,12.7 µM (inactive)
same,GI50,HL-60,3.24 µM (inactive)
same,GI50,HOP-62,18.2 µM (inactive)
same,GI50,SR,2.18 µM (inactive)
same,GI50,MDA-MB-435,12.9 µM (inactive)
same,GI50,NCI/ADR-RES,14.6 µM (inactive)
same,GI50,HCT-15,10.6 µM
same,GI50,NCI-H23,10.4 µM (inactive)
same,GI50,Malme-3M,12.6 µM (inactive)
same,GI50,A549,17.8 µM (inactive)
same,GI50,HT-29,15.2 µM (inactive)
same,GI50,SN12C,14.9 µM (inactive)
same,GI50,BT-549,7.5 µM (inactive)
same,GI50,UO-31,14.8 µM (inactive)
same,GI50,U-251,11.5 µM (inactive)
same,GI50,OVCAR-4,16.9 µM (inactive)
same,GI50,RPMI-8226,4.61 µM (inactive)
same,GI50,IGROV-1,8.69 µM (inactive)
same,GI50,SNB-19,13.2 µM (inactive)
same,GI50,786-0,12.1 µM (inactive)
same,GI50,OVCAR-5,19500 nM (inactive)
same,GI50,SF-295,14.7 µM (inactive)
same,GI50,SK-MEL-2,17.8 µM (inactive)
same,GI50,OVCAR-3,10.8 µM (inactive)
same,GI50,DU-145,10.9 µM (inactive)
same,GI50,CAKI-1,13 µM (inactive)
same,GI50,UACC-257,12.7 µM (inactive)
same,GI50,SNB-75,15.8 µM (inactive)
same,GI50,PC-3,16.8 µM (inactive)
same,GI50,T47D,16.7 µM (inactive)
same,GI50,SF-539,9.27 µM (inactive)
same,GI50,EKVX,11.7 µM (inactive)
same,GI50,M14,14.9 µM (inactive)
same,GI50,K562,2.96 µM (inactive)
same,GI50,A498,16.1 µM (inactive)
same,GI50,SK-MEL-5,7.46 µM (inactive)
same,GI50,MDA-MB-231,3.69 µM (inactive)
same,GI50,MCF7,7.85 µM (inactive)
same,GI50,MOLT-4,8.47 µM (inactive)
same,GI50,ACHN,12.3 µM (inactive)
same,GI50,OVCAR-8,11.9 µM (inactive)
same,GI50,LOX IMVI,13.2 µM (inactive)
O=c1[nH]c(=O)n([C@H]2C[C@H](O)[C@@H](CO)O2)cc1F [FLOXURIDINE],GI50,OVCAR-5,103 µM (inactive) and > 89.9 µM (inactive)
same,GI50,DMS-273,0.319 µM (active)
